Here are results for one molecule from patent US8815565B2, “Method for culturing mycoplasma contamination-free cells and method for removing mycoplasma contamination of cells” (Cellsafe Co., Ltd., priority 2010, dated 2014).

What all share (format): cell-based
In assay [1] the test system is cell lines NIH3T3, HepG2, and Raw 264.7 contaminated with mycoplasma. Description: Removing mycoplasma from contaminated cell lines with AM3, PCR with mycoplasma diagnosis kit. To be noted: 20 μg/ml, two 3-day cultures; NIH3T3, HepG2, Raw 264.7. On the procedure: Various cell lines constructed in laboratories of colleges located in Seoul were obtained. The obtained cell lines were cultured in a DMEM (GIBCO BRL, Cat. No. 12800-058) for 3 days, and then the cells were harvested. PCR was performed thereon with a mycoplasma diagnosis kit (Promokine, Germany; Cellsafe Co., Ltd., Korea) according to the enclosed protocol. The resulting PCR products were electrophoresed on a 1% agarose gel to measure the mycoplasma contamination. As a result, it was confirmed that three cell strains, i.e., NIH3T3, HepG2, Raw 264.7 cell lines, were infected with mycoplasma (see FIG. 1).
The cell lines NIH3T3, HepG2, and Raw 264.7, which were confirmed to be contaminated with mycoplasma, were each inoculated at a concentration of 1×10^6 cells on a T-75 culture flask (NUNC, Cat. No. 156367). DMEM (GIBCO BRL, Cat. No. 12800-058) containing 10% or less of serum (GIBCO BRL, Cat. No. 10082-147) was added thereto, followed by culturing for 3 days.
The cell lines NIH3T3, HepG2, and Raw 264.7, which were confirmed to be contaminated with mycoplasma, were each inoculated at a concentration of 1×10^6 cells on a T-75 culture flask (NUNC, Cat. No. 156367). DMEM (GIBCO BRL, Cat. No. 12800-058) containing 10% or less of serum (GIBCO BRL, Cat. No. 10082-147) was added thereto and then 20 μg/ml of amphidinol 3 (AM3) was added thereto. […]

For assay [2], the system named is Mycoplasma hyorhinis (ATCC 17981) inoculated on HepG2 cell line. Nature of the assay: Preventive activity against mycoplasma contamination during cell culturing. To be noted: 20 μg/ml AM3 and 20 μM surfactin, 1×10^3 cfu Mycoplasma hyorhinis. On the procedure:
A cell line HepG2, which was not contaminated with mycoplasma, was inoculated at a concentration of 1×10^5 cells on DMEM (GIBCO BRL, Cat. No. 12800-058) including 10% or less serum (GIBCO BRL, Cat. No. 10082-147). The cell line was treated with 20 μg/ml of amphidinol 3 (AM3) and 20 μM of surfactin, followed by inoculation of 1×10^3 cfu (colony formin unit) of Mycoplasma hyorhinis (ATCC 17981). The cell line was cultured in an incubator at a temperature of 37° C. and in a condition of 5% CO2 for 3 days. Sub-culturing was performed twice per week. The cells were harvested every week and then PCR was performed thereon with a mycoplasma diagnosis kit (Promokine, Germany; Cellsafe Co., Ltd., Korea) according to the enclosed protocol. The resulting PCR products were electrophoresed on a 1% agarose gel to measure the mycoplasma contamination.

Assay [3] deals with Mycoplasma hyorhinis (ATCC17981s). Nature of the assay: Inhibition of Mycoplasma hyorhinis cultured in PPLO medium, INT colour change. To be noted: Mycoplasma, read-out: concentration showing excellent inhibitory activity against mycoplasma. As to the method:
In order to evaluate the effects of the extract and amphidinol derivatives prepared in Example 1 on mycoplasma, Mycoplasma hyorhinis (ATCC17981s) was cultured in a PPLO medium (pleuropneumonia-like organism basal medium, Difco Laboratories, Detroit, USA) supplemented with a fetal calf serum and a yeast extract, according to the method disclosed by Hayflick (Hayflick, 1965, Tex. Rep. Bio. Med. 23, 285-303). That is, 100 μl of the medium was placed on each well of a 96-well plate, and a sample (that is, the extract and amphidinol derivatives prepared in Example 1) was added to each well, such that each sample was diluted from 2 times (i.e., 2× diluted) to 12 times (i.e., 12× diluted), the starting concentration being 1 mg/ml. Mycoplasma was cultured in a PPLO medium (pleuropneumonia-like organism basal medium, Difco Laboratories, Detroit, USA) supplemented with a fetal calf serum and a yeast extract, at a temperature of 37° C. for 48 hours. The resulting culture medium was diluted with the PPLO medium at a ratio of 1:10. 100 μl of the diluted culture medium was added to each well of the 96-well plate, so that the total amount of each well was 200 μl. After culturing at a temperature of 37° C. for 24 hours, 40 μl of 0.2 mg/ml INT (p-iodonitrotetrazolium) was added thereto and culturing was further performed for 4 hours. If the medium turns pink following the culturing, the color change means that metabolism of mycoplasma actively occurs. Also, if mycoplasma is suppressed by the sample, the medium turned pink less.

In brackets after ≈: the same amount, converted by molar mass.

Turning to `C=C/C=C/CC/C=C/C=C/C=C/CC/C=C/C(O)C(O)C1OC(C(O)C(O)C(=C)CCC(O)C2CC(O)C(O)C(C(O)C(O)/C=C(\C)CCC(O)CC(O)C(O)C(C)CC(O)C(O)CCCCCC(O)CCCC(O)/C=C/CC(O)/C=C/CC(O)CO)O2)CC(O)C1O` (stereo not drawn) [AM3, amphidinol 3], in assay [1], the mycoplasma contamination result is reported as “completely removed”. The “mycoplasma contamination after artificial inoculation” value in assay [2] is “stably cultured without mycoplasma contamination”. The IC50 in assay [3] was ~0.25 µg/mL (≈ 0.188 µM).
